{"source": "the supplement of paper PMC11208160"}
{"assay": "recombinant barcode read abundance after kanamycin selection (control-corrected) (log10(CPM+1)); higher = more efficient recombination; sequences stand for … in AGTGCAGAGAAAATCGGCCAGTTTTCTCTGCCTGCAGTCCGCATGCCGT…AGATTTATGCAGCGGACTGCCTTTCTCCCAAAGTGATAAACCGGACAGTATCATGGACCGGTTTTCCCGGTAATCCGTATTTGCAAGGTTGGTTTCACT; site = the 11-nt target", "procedure": "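Pooled E. coli target-specificity screen for the IS621 bridge recombinase. Each library plasmid pairs an 11-nt target (CT core) with a bridge RNA whose target-binding loop (9-nt LTG + 4-nt RTG) is reprogrammed; the rest of the 177-nt WT IS621 bridge RNA scaffold is fixed. The plasmid is co-electroporated with a WT donor plasmid; recombinase is induced with 0.1 mM IPTG and recombinants are selected on kanamycin. Recombinant barcodes are sequenced, converted to CPM, averaged over two biological replicates and corrected by the unselected control CPM. Molecule = full bridge RNA written as DNA: LTG = specificity nt 1-9, RTG = reverse complement of specificity nt 8-11, in the WT scaffold.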"}
{"sequence": "CGTGGTCCTTGGGTTCTAACCTGTTGCTT (site CGTGGTCCTAT)", "recombinant barcode read abundance (log10)": 0.426}
{"sequence": "ACCATGTCTTGGGTTCTAACCTGTTGCGG (site ACCATGTCTCC)", "recombinant barcode read abundance (log10)": 1.96}
{"sequence": "CAGTATCCTTGGGTTCTAACCTGTTGCCT (site CATTATCCTAG)", "recombinant barcode read abundance (log10)": 0.096}
{"sequence": "CAATCTGCTTGGGTTCTAACCTGTTGCCT (site CAGTCTGCTAG)", "recombinant barcode read abundance (log10)": 0.101}
{"sequence": "GCCTATGCTTGGGTTCTAACCTGTTGCCT (site GACTATGCTAG)", "recombinant barcode read abundance (log10)": 0.115}
{"sequence": "GTAAGTGCTTGGGTTCTAACCTGTTGCCT (site GTAATTGCTAG)", "recombinant barcode read abundance (log10)": 0.187}
{"sequence": "GAGCTTGCTTGGGTTCTAACCTGTTGCGA (site TGCGGGTCTAG)", "recombinant barcode read abundance (log10)": 0.122}
{"sequence": "CACACGCCTTGGGTTCTAACCTGTTGCCT (site CACACGCCTAG)", "recombinant barcode read abundance (log10)": 0.278}
{"sequence": "CCGACTCCTTGGGTTCTAACCTGTTGCCT (site CCGATTCCTAG)", "recombinant barcode read abundance (log10)": 0.102}
{"sequence": "TACATCCCTTGGGTTCTAACCTGTTGCCG (site TACATCCCTAG)", "recombinant barcode read abundance (log10)": 0.0934}
{"sequence": "AAATCTGCTTGGGTTCTAACCTGTTGCCT (site AAATCTGCTAG)", "recombinant barcode read abundance (log10)": 0.122}
{"sequence": "AACTTCACTTGGGTTCTAACCTGTTGCCT (site AACTTCGCTAG)", "recombinant barcode read abundance (log10)": 0.364}
{"sequence": "TCCAAGGCTTGGGTTCTAACCTGTTGCTA (site CTGCGTACTCG)", "recombinant barcode read abundance (log10)": 0.0788}
{"sequence": "CTTCGGACTTGGGTTCTAACCTGTTGCAA (site CTTCGGGCTTT)", "recombinant barcode read abundance (log10)": 0.223}
{"sequence": "GGGGCACCTTGGGTTCTAACCTGTTGCTA (site TGGGCACCTAA)", "recombinant barcode read abundance (log10)": 0.128}
{"sequence": "CTAATAGCTTGGGTTCTAACCTGTTGCCT (site CTAATGGCTAG)", "recombinant barcode read abundance (log10)": 0.0554}
{"sequence": "GCGGAATCTTGGGTTCTAACCTGTTGCCT (site GCGGAATCTAG)", "recombinant barcode read abundance (log10)": 1.28}
{"sequence": "CATCAGCCTTGGGTTCTAACCTGTTGCCT (site CATTAGCCTAG)", "recombinant barcode read abundance (log10)": 0.0622}
{"sequence": "GCTCAACCTTGGGTTCTAACCTGTTGCCT (site GGTCAACCTAG)", "recombinant barcode read abundance (log10)": 0.176}
{"sequence": "GGGCAACCTTGGGTTCTAACCTGTTGCGT (site GGGCAGCCTAG)", "recombinant barcode read abundance (log10)": 0.117}
{"sequence": "TTGTACACTTGGGTTCTAACCTGTTGCCC (site TTGTACACTGG)", "recombinant barcode read abundance (log10)": 0.996}
{"sequence": "ATCTACTCTTGGGTTCTAACCTGTTGCCT (site ATATACTCTCG)", "recombinant barcode read abundance (log10)": 0.382}
{"sequence": "TGTGAGTCTTGGGTTCTAACCTGTTGCTT (site TGTGAGTCTAA)", "recombinant barcode read abundance (log10)": 0.549}
{"sequence": "GTCTATACTTGGGTTCTAACCTGTTGCCT (site GTGTATACTAG)", "recombinant barcode read abundance (log10)": 0.0645}
{"sequence": "AGACTTCCTTGGGTTCTAACCTGTTGCTT (site AGACCTCCTAA)", "recombinant barcode read abundance (log10)": 0.121}
{"sequence": "ATTTGAGCTTGGGTTCTAACCTGTTGCTG (site ATTTGAGCTCA)", "recombinant barcode read abundance (log10)": 0.732}
{"sequence": "ACTTAGACTTGGGTTCTAACCTGTTGCCC (site ACTTAGACTCG)", "recombinant barcode read abundance (log10)": 0.333}
{"sequence": "AATTGGCCTTGGGTTCTAACCTGTTGCGT (site AATTGGCCTAC)", "recombinant barcode read abundance (log10)": 0.673}
{"sequence": "CAACCGACTTGGGTTCTAACCTGTTGCCT (site CAACCGGCTAG)", "recombinant barcode read abundance (log10)": 0.0866}
{"sequence": "TATGGGGCTTGGGTTCTAACCTGTTGCCT (site TATGTGGCTAG)", "recombinant barcode read abundance (log10)": 0.0518}
{"sequence": "ACTAGGACTTGGGTTCTAACCTGTTGCGG (site ACTAGGACTCC)", "recombinant barcode read abundance (log10)": 2.93}
{"sequence": "GAACCTACTTGGGTTCTAACCTGTTGCCG (site GAGCCTACTAG)", "recombinant barcode read abundance (log10)": 0.172}
{"sequence": "AGGTCCTCTTGGGTTCTAACCTGTTGCAT (site AGGTCCTCTAA)", "recombinant barcode read abundance (log10)": 0.282}
{"sequence": "GTCTCCTCTTGGGTTCTAACCTGTTGCCT (site GTCGCCTCTAG)", "recombinant barcode read abundance (log10)": 0.0306}
{"sequence": "GAACGACCTTGGGTTCTAACCTGTTGCTG (site GAACGACCTCA)", "recombinant barcode read abundance (log10)": 1.16}
{"sequence": "ACAGACGCTTGGGTTCTAACCTGTTGCCT (site ACAGTCGCTAG)", "recombinant barcode read abundance (log10)": 0.0906}
{"sequence": "CACTTAGCTTGGGTTCTAACCTGTTGCGG (site CACTCACCTCC)", "recombinant barcode read abundance (log10)": 0.0176}
{"sequence": "TAGGCGCCTTGGGTTCTAACCTGTTGCCT (site TAGGCGCCTAT)", "recombinant barcode read abundance (log10)": 0.235}
{"sequence": "CTAGGTACTTGGGTTCTAACCTGTTGCTT (site ATAGGTACTAA)", "recombinant barcode read abundance (log10)": 0.0337}
{"sequence": "TTGGACGCTTGGGTTCTAACCTGTTGCCT (site TTGGTCGCTAG)", "recombinant barcode read abundance (log10)": 0.133}
{"sequence": "GAGCGCACTTGGGTTCTAACCTGTTGCAG (site GAGCGCACTCC)", "recombinant barcode read abundance (log10)": 0.27}
{"sequence": "ACAATAGCTTGGGTTCTAACCTGTTGCCT (site ACAATACCTCG)", "recombinant barcode read abundance (log10)": 0.0732}
{"sequence": "ATCCAGCCTTGGGTTCTAACCTGTTGCCT (site ATCCAACCTAG)", "recombinant barcode read abundance (log10)": 1.16}
{"sequence": "GGTACTACTTGGGTTCTAACCTGTTGCAT (site CGTACTACTGT)", "recombinant barcode read abundance (log10)": 0.0302}
{"sequence": "CACGGGTCTTGGGTTCTAACCTGTTGCTT (site CACGGGTCTAA)", "recombinant barcode read abundance (log10)": 2.32}
{"sequence": "CCTACATCTTGGGTTCTAACCTGTTGCCT (site CCTACAGCTAG)", "recombinant barcode read abundance (log10)": 0.0484}
{"sequence": "GTCGTCCCTTGGGTTCTAACCTGTTGCCT (site GTCGTCACTAG)", "recombinant barcode read abundance (log10)": 0.0509}
{"sequence": "CAATGGTCTTGGGTTCTAACCTGTTGCTT (site CAATGGTCTAG)", "recombinant barcode read abundance (log10)": 1.07}
{"sequence": "ACATAGACTTGGGTTCTAACCTGTTGCGC (site ACAGAGACTGC)", "recombinant barcode read abundance (log10)": 0.168}
{"sequence": "GACGGTCCTTGGGTTCTAACCTGTTGCGG (site GATGGTCCTCC)", "recombinant barcode read abundance (log10)": 0.418}
{"sequence": "GTTCAGCCTTGGGTTCTAACCTGTTGCCT (site GTTCAGCCTAG)", "recombinant barcode read abundance (log10)": 0.611}
{"sequence": "TGGCCTGCTTGGGTTCTAACCTGTTGCCT (site TGGCGAGCTAG)", "recombinant barcode read abundance (log10)": 0.176}
{"sequence": "TGGTATCCTTGGGTTCTAACCTGTTGCCT (site TGGTATGCTAG)", "recombinant barcode read abundance (log10)": 0.396}
{"sequence": "CCGTCTACTTGGGTTCTAACCTGTTGCCT (site CCGTCTACTAG)", "recombinant barcode read abundance (log10)": 0.0187}
{"sequence": "TGGACCACTTGGGTTCTAACCTGTTGCCT (site TGGAGCACTAG)", "recombinant barcode read abundance (log10)": 0.0755}
{"sequence": "ACCCAGCCTTGGGTTCTAACCTGTTGCGT (site ACCCAGCCTAT)", "recombinant barcode read abundance (log10)": 2.22}
{"sequence": "CCAGGTCCTTGGGTTCTAACCTGTTGCAT (site CCAGGTCCTAC)", "recombinant barcode read abundance (log10)": 0.111}
{"sequence": "CTGACTTCTTGGGTTCTAACCTGTTGCCT (site CAGACTTCTAG)", "recombinant barcode read abundance (log10)": 0.0484}
{"sequence": "CTGCAGACTTGGGTTCTAACCTGTTGCCG (site CTGCAGACTCG)", "recombinant barcode read abundance (log10)": 0.41}
{"sequence": "GCTGGCCCTTGGGTTCTAACCTGTTGCCT (site GGTGGCCCTAG)", "recombinant barcode read abundance (log10)": 0.0479}
{"sequence": "GTAACCTCTTGGGTTCTAACCTGTTGCCG (site GTAACCTCTGG)", "recombinant barcode read abundance (log10)": 0.0296}
{"sequence": "GTAAGATCTTGGGTTCTAACCTGTTGCAC (site AGGCCCGCTCC)", "recombinant barcode read abundance (log10)": 0.0896}
{"sequence": "GGGCACACTTGGGTTCTAACCTGTTGCCA (site GGGAACACTTG)", "recombinant barcode read abundance (log10)": 0.193}
{"sequence": "ACCCAAGCTTGGGTTCTAACCTGTTGCCT (site ACCCAAGCTAG)", "recombinant barcode read abundance (log10)": 1.57}
{"sequence": "CCTGGGACTTGGGTTCTAACCTGTTGCGA (site CCTGGGACTTC)", "recombinant barcode read abundance (log10)": 2.58}
{"sequence": "ACTATAACTTGGGTTCTAACCTGTTGCTT (site ACTATAACTAA)", "recombinant barcode read abundance (log10)": 0.401}
{"sequence": "ACGTGAACTTGGGTTCTAACCTGTTGCCT (site ACATGAACTAG)", "recombinant barcode read abundance (log10)": 0.532}
{"sequence": "CTGCAGTCTTGGGTTCTAACCTGTTGCCA (site TGCATAGCTCT)", "recombinant barcode read abundance (log10)": 0.126}
{"sequence": "CAGGGTTCTTGGGTTCTAACCTGTTGCCT (site CCGGGTTCTAG)", "recombinant barcode read abundance (log10)": 0.0396}
{"sequence": "GACACTGCTTGGGTTCTAACCTGTTGCCT (site GACACTGCTAG)", "recombinant barcode read abundance (log10)": 0.403}
{"sequence": "CTACAACCTTGGGTTCTAACCTGTTGCTT (site CTACATCCTAA)", "recombinant barcode read abundance (log10)": 0}
{"sequence": "GCCCCGCCTTGGGTTCTAACCTGTTGCAG (site GCCACGCCTCT)", "recombinant barcode read abundance (log10)": 0.319}
{"sequence": "TTGAATTCTTGGGTTCTAACCTGTTGCTT (site TTGTATTCTAG)", "recombinant barcode read abundance (log10)": 0.234}
{"sequence": "TCGGAGTCTTGGGTTCTAACCTGTTGCGT (site TCGGAGTCTAG)", "recombinant barcode read abundance (log10)": 0.969}
{"sequence": "CCTAAGACTTGGGTTCTAACCTGTTGCCT (site CCTAAGACTGG)", "recombinant barcode read abundance (log10)": 0.0702}
{"sequence": "TTCTCGCCTTGGGTTCTAACCTGTTGCCT (site TTCCCGCCTAG)", "recombinant barcode read abundance (log10)": 0.536}
{"sequence": "TGTACGACTTGGGTTCTAACCTGTTGCGG (site TGTACGACTCC)", "recombinant barcode read abundance (log10)": 0.7}
{"sequence": "TAGTACCCTTGGGTTCTAACCTGTTGCAT (site TAGTACCCTCT)", "recombinant barcode read abundance (log10)": 0.0976}
{"sequence": "GTAATGTCTTGGGTTCTAACCTGTTGCCT (site GGAATGTCTAG)", "recombinant barcode read abundance (log10)": 0.112}
{"sequence": "CCAGGACCTTGGGTTCTAACCTGTTGCCT (site CGAGGACCTAG)", "recombinant barcode read abundance (log10)": 0.291}
{"sequence": "CATGCTACTTGGGTTCTAACCTGTTGCGT (site CATGCTACTAC)", "recombinant barcode read abundance (log10)": 0.41}
{"sequence": "CTTCGTCCTTGGGTTCTAACCTGTTGCAT (site CTTCGTCCTAC)", "recombinant barcode read abundance (log10)": 0.133}
